{
  "source": "patent US20250082781A1",
  "about": "“METHODS OF LOWERING BLOOD GLUCOSE AND TREATING TYPE 2 DIABETES BY ACTIVATION OF PDE4D3” (Salk Institute for Biological Studies, priority 2021, published 2025)",
  "key": {"[1]": {"system": "human SVF-derived adipocytes", "test": "In vitro lipolysis assay (FFA release), human SVF-derived adipocytes", "assay_type": "cell-based", "description": "Differentiation of pre-adipocytes were based on previously published methods (Bunnell et al., 2008). Briefly, 3T3-L1 pre-adipocytes were grown to full confluence in DMEM, 10% FBS (GemCell, 100-500), 10 mM HEPES and antibiotic-antimycotic (full growth media). 2 days later, differentiation was induced by replacing the media with 1 μM dexamethasone, 1 μM rosiglitazone, 500 μM IBMX and 5 μg/ml insulin in full growth media 2 days later after reaching full confluence. Two days later media was replaced by differentiation induction media with 1 μM rosiglitazone and 5 μg/ml insulin for 4 days with media change after 2 days. Cells were kept in maintenance medium (full growth media with 5 μg/ml insulin) for 4 more days for full differentiation. For differentiation of mouse SVF derived adipocytes, the protocol was same except DMEM/F12 (10565018, ThermoFisher) was used as base media and initial differentiation induction media was kept for 3 days. For differentiation of human subcutaneous adipocytes, protocol and media from the manufacturer (C-12735, C-39437, Promocell) were used. […]\nFor in vitro lipolysis assay, cells were washed with PBS and media were changed to full growth media 1 day before experiment. […] FFAs were measured in the media using a commercial kit (Wako-NEFAHR2) and normalized to protein concentration. […] FFAs were measured and normalized by the explant weights."}, "[2]": {"system": "HSL phosphorylation at S660", "test": "Western blot of pHSL-S660 in 3T3-L1 adipocytes", "assay_type": "cell-based", "settings": "basal and ISO-stimulated, FGF1 100 ng/ml", "description": "(§1) Tissues were lysed in cold lysis buffer (50 mM Tris, pH 7.5, 150 mM NaCl, 1% NP40, 0.5% NaDoc, 0.1% SDS, 5% glycerol, 1 mM EDTA, protease and phosphatase inhibitors (complete and PhosSTOP (Roche)) by homogenization by bead-beater for 30 s. Samples were cleared for 10 min at 18,000 g at 4° C. and the middle clear phase was transferred to new tubes. A second 30 min centrifugation was performed and the middle clear phase was transferred to new tubes. Five ul protein extract was used for BCA assay to determine protein concentration. Samples were boiled in Laemmli buffer. SDS-PAGE and blotting were performed using gradient gels and Trans-Blot Turbo Transfer System (Bio-Rad). Antibodies used were PDE4D (12918-1-AP, Proteintech), pHSL-660 (4126S, Cell signaling), HSL (4107S, Cell Signaling), tubulin (CP06, Millipore Sigma), and GFP (A01388, GenScript). PDE4D3-pS44 phospho-specific antibody was generated using PDE4D3-S44 FRRHpSWISFDVDNGTSAGR peptide (SEQ ID NO: 20) (Mackenzie et al., 2002) by Pocono Rabbit Farm, using 70-day rabbit antibody production protocol and purified via affinity purification. Primary antibodies were incubated for 2 h at room temperature (RT) or overnight (ON) at 4° C. Blots were developed using SuperSignal West Pico PLUS Chemiluminescent Substrate (ThermoFisher Scientific) and imaged with BioRad GelDoc system."}, "[3]": {"system": "HSL phosphorylation at S660", "test": "Western blot of pHSL-S660 in gWAT after injection", "assay_type": "in vivo, mouse", "settings": "30 min after FGF1 injection 0.5 mg/kg", "description": "as §1"}, "[4]": {"system": "pyruvate carboxylase", "test": "Hepatic pyruvate carboxylase (Pcx) activity assay", "assay_type": "in vivo, mouse", "settings": "HFD-fed adR1WT mice, FGF1 0.5 mg/kg", "description": "Pcx activity was determined by malate dehydrogenase coupling method originally reported by Payne et al. (Payne and Morris, 1969). Briefly, mice were sacrificed by decapitation. Liver samples were rapidly frozen in liquid nitrogen within 5 seconds of excision designed to avoid loss of hepatic acetyl-CoA levels. Frozen liver samples were pulverized on dry ice and approximately 100 mg of tissues were homogenized with TissueLyzer in Pcx activity assay buffer (50 mM Tris pH8, 10 mM MgCl2, 10 mM NaHCO3). Homogenates were cleared by centrifugation at 14000 rpm for 10 minutes. Cleared supernatants were diluted in Pcx activity assay buffer to approximately 1 μg/ul. Approximately 5 μg protein was loaded onto 96-well plates and the total volume was brought up to 20 ul by Pcx activity assay buffer. Absorbance at 340 nm was monitored every 9 seconds at 37° C. immediately after the addition of 80 ul Pcx reaction buffer (50 mM Tris pH8, 10 mM MgCl2, 10 mM NaHCO3, 6.25 mM ATP, 0.125 mM NADH, 2.5 mM pyruvate, malate dehydrogenase 0.025 U/ml in Pcx activity assay buffer). Pcx activity was determined as the loss of absorbance at 340 nm over time normalized to protein concentration."}, "[5]": {"system": "cAMP", "test": "cAMP levels in 3T3-L1 adipocytes (ELISA, biosensor, CRE-Luc reporter)", "assay_type": "cell-based", "description": "3T3-L1 cells were transduced with viral particles ([…]) in 24 well plates. Media was replaced after overnight incubation. 3-4 days after AAV infection, cells were treated as described for lipolysis assay. For cAMP analysis by biosensors, Downward Green cADDis cAMP Sensor (D0200G) and control mNeon Green (F0500G) produced in BacMam system was purchased from Montana Molecular. Brightfield and fluorescence images were taken every 10-20 min in I IncuCyte® Live-cell analysis system (Sartorius) and images were analyzed by IncuCyte® Analysis Software. High-resolution live cell imaging was performed with LSM 880 Airyscan microscope at 40× objective."}, "[6]": {"system": "PDE4D", "test": "Western blot of PDE4D phosphorylation in 3T3-L1 adipocytes", "assay_type": "cell-based", "description": "as §1"}, "[7]": {"system": "PDE4D", "test": "Western blot of PDE4D phosphorylation in gWAT after injection", "assay_type": "in vivo, mouse", "settings": "30 minutes after FGF1 injection 0.5 mg/kg", "description": "as §1"}},
  "data": [
    {"substance": "FGF1: Recombinant fibroblast growth factor 1 protein, dissolved in PBS, injected subcutaneously", "values": [
      {"measurement": "anti-lipolytic activity of FGF1 with selective inhibitors of PDE4", "setting": "[1]; FGF1 100 ng/ml with roflumilast 2 μM", "result": "blocked by selective inhibitors of PDE4"},
      {"measurement": "basal and isoproterenol-induced lipolysis", "setting": "[1]; FGF1 100 ng/ml, 10 min before ISO 1 nM", "result": "acutely suppressed basal and isoproterenol-induced lipolysis"},
      {"measurement": "HSL phosphorylation at S660 (pHSL)", "setting": "[2]", "result": "suppressed HSL phosphorylation at S660"},
      {"measurement": "pHSL levels in gWAT", "setting": "[3]", "result": "decreased"},
      {"measurement": "reduction in pyruvate carboxylase activity", "setting": "[4]", "result": "~50", "unit": "%"},
      {"measurement": "isoproterenol-induced increases in cAMP and cAMP/PKA signaling", "setting": "[5]; FGF1 pretreatment, ISO 100 nM", "result": "attenuated isoproterenol-induced increases in cAMP"},
      {"measurement": "FGF1-induced attenuation of isoproterenol-driven increase in cAMP with PDE4 inhibitor", "setting": "[5]; live 3T3-L1 cells, cAMP biosensor, roflumilast 2 μM", "result": "lost"},
      {"measurement": "FGF1-induced phosphorylation of PDE4D3 in the S44A mutant", "setting": "[6]; 3T3-L1 adipocytes infected with adAAV PDE4D3 S44A", "result": "lost"},
      {"measurement": "S44 phosphorylation of PDE4D3", "setting": "[6]; 3T3-L1 cells overexpressing PDE4D3, absence and presence of isoproterenol", "result": "increased S44 phosphorylation"},
      {"measurement": "PDE4D phosphorylation", "setting": "[6]; isoproterenol-stimulated, FGF1 co-treatment 100 ng/ml", "result": "increased both the extent and duration of PDE4D phosphorylation"},
      {"measurement": "PDE4D phosphorylation in gWAT", "setting": "[7]", "result": "increase in PDE4D phosphorylation"}
    ]}
  ]
}
